Measurements taken from patent US20020137154A1, “Methods for improving cell growth and alcohol production during fermentation” (priority 2000, published 2002).
Like-named read-outs stand apart in the source and are kept apart here.

Tested on: recombinant Escherichia coli KO11
Experiment: Batch fermentation of E. coli KO11 in 1% CSL medium and xylose with nutrient additives: ethanol production and cell growth
Type: cell-based
Conditions: for Ethanol Production Maximum / Ethanol yield / Initial Growth (OD @ 24 h) OD / Maximum Cell Density OD / Maximum Cell Density Time / Volumetric Productivity Average / Volumetric Productivity Maximum: 1% CSL+xylose; for activity at 250 µg/mL / activity at 100 µg/mL / activity at 500 µg/mL: Escherichia coli
[1] = 1% CSL and xylose, 0.25 g/L at the start and after 12 hours
[2] = 3 × 0.25 g/L (start, 12 h, 24 h)

CC=O [Acetaldehyde, acetaldehyde]
ethanol production as compared to the control [1]: highest amount of ethanol production
initial growth and maximum cell density as compared to a control [1]: greatest initial growth and maximum cell density
Ethanol Production Maximum (0.1 g/L at start): 29.51 g/L
Ethanol yield (0.1 g/L at start): 0.304 grams of ethanol/grams of added sugar
Initial Growth (OD @ 24 h) OD (0.1 g/L at start): 2.25 OD
Maximum Cell Density OD (0.1 g/L at start): 2.56 OD
Maximum Cell Density Time (0.1 g/L at start): 48 h
Volumetric Productivity Average (0.1 g/L at start): 0.307 grams ethanol/(liter)(hour)
Volumetric Productivity Maximum (0.1 g/L at start): 0.389 grams ethanol/(liter)(hour)
Ethanol Production Maximum (0.25 g/L at start): 34.45 g/L
Ethanol yield (0.25 g/L at start): 0.355 grams of ethanol/grams of added sugar
Initial Growth (OD @ 24 h) OD (0.25 g/L at start): 2.48 OD
Maximum Cell Density OD (0.25 g/L at start): 3.12 OD
Maximum Cell Density Time (0.25 g/L at start): 96 h
Volumetric Productivity Average (0.25 g/L at start): 0.359 grams ethanol/(liter)(hour)
Volumetric Productivity Maximum (0.25 g/L at start): 0.425 grams ethanol/(liter)(hour)
Ethanol Production Maximum (0.5 g/L at start): 42.66 g/L
Ethanol yield (0.5 g/L at start): 0.439 grams of ethanol/grams of added sugar
Initial Growth (OD @ 24 h) OD (0.5 g/L at start): 2.55 OD
Maximum Cell Density OD (0.5 g/L at start): 4.31 OD
Maximum Cell Density Time (0.5 g/L at start): 96 h
Volumetric Productivity Average (0.5 g/L at start): 0.444 grams ethanol/(liter)(hour)
Volumetric Productivity Maximum (0.5 g/L at start): 0.623 grams ethanol/(liter)(hour)
Ethanol Production Maximum (2 × 0.25 g/L (start, 12 h)): 45.57 g/L
Ethanol yield (2 × 0.25 g/L (start, 12 h)): 0.469 grams of ethanol/grams of added sugar
Initial Growth (OD @ 24 h) OD (2 × 0.25 g/L (start, 12 h)): 3.36 OD
Maximum Cell Density OD (2 × 0.25 g/L (start, 12 h)): 4.67 OD
Maximum Cell Density Time (2 × 0.25 g/L (start, 12 h)): 96 h
Volumetric Productivity Average (2 × 0.25 g/L (start, 12 h)): 0.475 grams ethanol/(liter)(hour)
Volumetric Productivity Maximum (2 × 0.25 g/L (start, 12 h)): 0.740 grams ethanol/(liter)(hour)
Ethanol Production Maximum [2]: 38.21 g/L
Ethanol yield [2]: 0.393 grams of ethanol/grams of added sugar
Initial Growth (OD @ 24 h) OD [2]: 3.04 OD
Maximum Cell Density OD [2]: 4.02 OD
Maximum Cell Density Time [2]: 48 h
Volumetric Productivity Average [2]: 0.398 grams ethanol/(liter)(hour)
Volumetric Productivity Maximum [2]: 0.540 grams ethanol/(liter)(hour)
activity at 250 µg/mL (12 h, read-out: Ethanol Production Maximum % Control, 1% CSL+xylose, 2 × 0.25 g/L (start, 12 h)): 152%
activity at 250 µg/mL (12 h, read-out: Maximum Cell Density % Control, 1% CSL+xylose, 2 × 0.25 g/L (start, 12 h)): 186%
activity at 250 µg/mL (12 h, read-out: Volumetric Productivity Average % Control, 1% CSL+xylose, 2 × 0.25 g/L (start, 12 h)): 152%
activity at 250 µg/mL (12 h, read-out: Volumetric Productivity Maximum % Control, 1% CSL+xylose, 2 × 0.25 g/L (start, 12 h)): 201%
activity at 100 µg/mL (24 h, read-out: Initial Growth (OD @ 24 h) % Control, 1% CSL+xylose, 0.1 g/L at start): 110%
activity at 250 µg/mL (24 h, read-out: Initial Growth (OD @ 24 h) % Control, 1% CSL+xylose, 0.25 g/L at start): 121%
activity at 500 µg/mL (24 h, read-out: Initial Growth (OD @ 24 h) % Control, 1% CSL+xylose, 0.5 g/L at start): 125%
activity at 250 µg/mL (24 h, read-out: Initial Growth (OD @ 24 h) % Control, 1% CSL+xylose, 2 × 0.25 g/L (start, 12 h)): 165%
activity at 250 µg/mL (24 h, read-out: Initial Growth (OD @ 24 h) % Control, 1% CSL+xylose, 3 × 0.25 g/L (start, 12 h, 24 h)): 149%
activity at 100 µg/mL (read-out: Ethanol Production Maximum % Control, 1% CSL+xylose, 0.1 g/L at start): 98.1%
activity at 250 µg/mL (read-out: Ethanol Production Maximum % Control, 1% CSL+xylose, 0.25 g/L at start): 115%
activity at 500 µg/mL (read-out: Ethanol Production Maximum % Control, 1% CSL+xylose, 0.5 g/L at start): 142%
activity at 250 µg/mL (read-out: Ethanol Production Maximum % Control, 1% CSL+xylose, 3 × 0.25 g/L (start, 12 h, 24 h)): 127%
activity at 100 µg/mL (read-out: Maximum Cell Density % Control, 1% CSL+xylose, 0.1 g/L at start): 102%
activity at 250 µg/mL (read-out: Maximum Cell Density % Control, 1% CSL+xylose, 0.25 g/L at start): 124%
activity at 500 µg/mL (read-out: Maximum Cell Density % Control, 1% CSL+xylose, 0.5 g/L at start): 171%
activity at 250 µg/mL (read-out: Maximum Cell Density % Control, 1% CSL+xylose, 3 × 0.25 g/L (start, 12 h, 24 h)): 160%
activity at 100 µg/mL (read-out: Volumetric Productivity Average % Control, 1% CSL+xylose, 0.1 g/L at start): 98.1%
activity at 250 µg/mL (read-out: Volumetric Productivity Average % Control, 1% CSL+xylose, 0.25 g/L at start): 115%
activity at 500 µg/mL (read-out: Volumetric Productivity Average % Control, 1% CSL+xylose, 0.5 g/L at start): 142%
activity at 250 µg/mL (read-out: Volumetric Productivity Average % Control, 1% CSL+xylose, 3 × 0.25 g/L (start, 12 h, 24 h)): 127%
activity at 100 µg/mL (read-out: Volumetric Productivity Maximum % Control, 1% CSL+xylose, 0.1 g/L at start): 106%
activity at 250 µg/mL (read-out: Volumetric Productivity Maximum % Control, 1% CSL+xylose, 0.25 g/L at start): 115%
activity at 500 µg/mL (read-out: Volumetric Productivity Maximum % Control, 1% CSL+xylose, 0.5 g/L at start): 169%
activity at 250 µg/mL (read-out: Volumetric Productivity Maximum % Control, 1% CSL+xylose, 3 × 0.25 g/L (start, 12 h, 24 h)): 147%
